Reference: patent publication US11802127B2, “3,4-dihydro-2,7-naphthyridine-1,6(2H,7H)-diones as MEK inhibitors” (Pfizer Inc., priority 2021, dated 2023)

Assays:
[1] = tested on: ERK1/2(Thr202/Tyr204) phosphorylation (MEK-dependent) in A375 cells; test: Cellular Phospho-p44/42 MAPK (Erk1/2) (Thr202/Tyr204) Assay; format: cell-based; details: Homo sapiens, A-375, 1-hour incubation, pERK1/2 (Thr202/Tyr204) In-Cell Western normalized to GAPDH
Description: Inhibition of ERK1/2(Thr202/Tyr204) phosphorylation was determined by the following cellular assay, which comprises incubating cells with a compound for 1 hour and quantifying pERK signal by In-Cell Western on fixed cells and normalizing to GAPDH signal. A375 cells were obtained from the ATCC and grown in DMEM supplemented with 10% fetal bovine serum, penicillin/streptomycin, Glutamax®, non-essential amino acids, and sodium pyruvate. Cells were plated in 96-well plates at 30,000 cells/well and allowed to attach overnight at 37° C./5% CO2. Cells were treated with compounds prepared as a 10-point, 1:3 dilution series (range: 20 μM-0.05 nM; maximum concentration varied from 20 μM-1 μM), with a final DMSO concentration of 0.5%. Control wells contained either 0.5% DMSO alone (no inhibition control) or 1 μM of a potent control compound (complete inhibition control). After a 1-hour incubation, cells were fixed in 3.7% formaldehyde in dPBS (Dulbecco's phosphate-buffered saline) at room temperature for 20 minutes. Cells were then washed with dPBS and permeabilized in 100% MeOH at room temperature for 10 minutes. Following permeabilization, cells were washed in dPBS and incubated in LI-COR Blocking Buffer (LI-COR Biosciences, Cat #927-40000) for 1 hour or longer. Plates were then incubated with an antibody specific for the MEK-dependent ERK1/2 phosphorylation sites, threonine 202 and tyrosine 204 (Cell Signaling Technologies; Cat #9101), downstream of MEK in the MAP kinase signal transduction pathway, as well as GAPDH (Millipore; Cat #MAB374). pErk1/2 (Thr202/Tyr204) antibody was diluted in LI-COR blocking buffer containing 0.05% Tween-20 at 1:250; GAPDH was diluted at 1:2,500. The plates were incubated overnight at 4° C. After washing with PBS/0.05% Tween-20, the cells were incubated with fluorescently-labeled secondary antibodies (Anti-rabbit-Alexa Flour680, Invitrogen Cat #A21109; Anti-mouse-IRDye800CW, LI-COR Biosciences Cat #926-32210, both at 1:1000 dilution) for 1 hour. Cells were then washed, as above, and analyzed for fluorescence at both 680 and 800 nm wavelengths using the Odyssey CLx Infrared Imaging System (LI-COR Biosciences). Phosphorylated Erk1/2 (Thr202/Tyr204) signal was normalized to GAPDH signal for each well.

[2] = MDR1 LLC-PK1 and BCRP MDCKII Permeability Assay: permeability coefficient (Papp); format: in vitro ADME; details: MDCK, test article 1 μM, 37° C.
Description: (§1) Both LLC-PK1 and MDR1 transfected LLC-PK1 cells were cultured and plated according to manufacturer's recommendations with the exception that the passage media contained only 2% fetal bovine serum to extend passage time out to seven days.
(§2) BCRP transfected MDCKII canine P-gp knockout cell line was cultured and plated according to manufacturer's recommendations.
(§3) Both positive and negative controls were used to assess functionality of P-gp or BCRP efflux in the assays. Stock solutions for assay controls and the test article were prepared in DMSO for final test concentrations of 10 and 1 μM, respectively. Final organic concentration in the assay was 1%. All dosing solutions contained 10 μM lucifer yellow to monitor LLC-PK1 or MDCKII cell monolayer integrity.
(§4) For the apical to basolateral determination (A to B), 75 μL of the test article in transport buffer were added to the apical side of the individual transwells and 250 μL of basolateral media, without compound or lucifer yellow, were added to each well. For the basolateral to apical determination (B to A), 250 μL of test article in transport buffer were added to each well and 75 μL transport buffer, without compound or lucifer yellow, were added to each transwell. All tests were performed in triplicate, and each compound was tested for both apical to basolateral and basolateral to apical transport. The plates were incubated for 2 hours on a Lab-Line Instruments Titer Orbital Shaker (VWR, West Chester, PA) at 50 rpm and 37° C. with 5% CO2. All culture plates were removed from the incubator and 50 μL of media were removed from the apical and basolateral portion of each well and added to 150 μL of 1 μM labetalol in 2:1 acetonitrile (acetonitrile): H2O, v/v.
(§5) The plates were read using a Molecular Devices (Sunnyvale, CA) Gemini Fluorometer to evaluate the lucifer yellow concentrations at excitation/emission wavelengths of 425/535 nm. These values were accepted when found to be below 2% for apical to basolateral and 5% basolateral to apical flux across the MDR1-transfected LLC-PK1 or BCRP-transfected MDCKII cell monolayers. The plates were sealed and the contents of each well analyzed by LC-MS/MS. The compound concentrations were determined from the ratio of the peak areas of the compound to the internal standard (labetalol) in comparison to the dosing solution.
(§6) The LC-MS/MS system was comprised of an HTS-PAL autosampler (Leap Technologies, Carrboro, NC), an HP1200 HPLC (Agilent, Palo Alto, CA), and a MDS Sciex 4000 Q Trap system (Applied Biosystems, Foster City, CA). […] The total run time, including re-equilibration, for a single injection was 1.2 minutes. Mass spectrometric detection of the analytes was accomplished using the ion spray positive mode. Analyte responses were measured by multiple reaction monitoring (MRM) of transitions unique to each compound (the protonated precursor ion and selected product ions for each test article and m/z 329 to m/z 162 for labetalol, the internal standard).

P-gp (MDR1) = target: T1, P-gp (MDR1) (Homo sapiens, UniProt P08183); test: Efflux ratio in MDR1 transfected LLC-PK1 cells; format: in vitro ADME; details: pig, Papp(B−A)/Papp(A−B)
T1 construct: expressed in transfected cells; host or cells: LLC-PK1 (porcine kidney) cells transfected with MDR1
Description: as §1, §3, §4, §5, §6
(§7) An efflux ratio is calculated from the mean apical to basolateral (A−B) Papp data and basolateral to apical (B−A) Papp data: Efflux ratio=Papp(B−A)/Papp(A−B)

BCRP (hBCRP) = target: T2, BCRP (hBCRP) (Homo sapiens, UniProt Q9UNQ0); test: Efflux ratio in BCRP transfected MDCKII canine P-gp knockout cells; format: in vitro ADME; details: Papp(B−A)/Papp(A−B), read-out: Efflux ratio MDCKII-hBCRP knock-in,canine pg-P KO
T2 construct: expressed in transfected cells; host or cells: MDCKII (canine kidney) cells, canine P-gp knockout, transfected with BCRP
T2 sequence (Q9UNQ0 1-655): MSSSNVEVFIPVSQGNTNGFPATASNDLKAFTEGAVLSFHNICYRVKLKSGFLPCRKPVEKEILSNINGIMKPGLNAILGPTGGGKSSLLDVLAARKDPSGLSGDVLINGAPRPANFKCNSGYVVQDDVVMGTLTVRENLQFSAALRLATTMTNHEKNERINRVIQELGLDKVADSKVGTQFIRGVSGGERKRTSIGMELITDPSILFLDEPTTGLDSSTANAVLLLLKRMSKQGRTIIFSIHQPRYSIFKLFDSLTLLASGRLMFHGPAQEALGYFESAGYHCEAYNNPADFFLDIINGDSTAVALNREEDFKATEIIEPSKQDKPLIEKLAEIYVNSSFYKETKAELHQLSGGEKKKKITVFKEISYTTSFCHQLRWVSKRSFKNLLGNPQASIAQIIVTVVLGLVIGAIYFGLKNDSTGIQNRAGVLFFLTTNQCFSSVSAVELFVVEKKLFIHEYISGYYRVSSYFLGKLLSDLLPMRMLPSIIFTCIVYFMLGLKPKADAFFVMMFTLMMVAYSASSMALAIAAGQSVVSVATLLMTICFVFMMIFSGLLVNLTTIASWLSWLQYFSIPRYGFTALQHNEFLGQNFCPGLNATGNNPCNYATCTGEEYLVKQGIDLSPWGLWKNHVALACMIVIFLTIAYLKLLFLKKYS
Description: as §2, §3, §4, §5, §6, §7

T1 sequence (P08183 whole entry): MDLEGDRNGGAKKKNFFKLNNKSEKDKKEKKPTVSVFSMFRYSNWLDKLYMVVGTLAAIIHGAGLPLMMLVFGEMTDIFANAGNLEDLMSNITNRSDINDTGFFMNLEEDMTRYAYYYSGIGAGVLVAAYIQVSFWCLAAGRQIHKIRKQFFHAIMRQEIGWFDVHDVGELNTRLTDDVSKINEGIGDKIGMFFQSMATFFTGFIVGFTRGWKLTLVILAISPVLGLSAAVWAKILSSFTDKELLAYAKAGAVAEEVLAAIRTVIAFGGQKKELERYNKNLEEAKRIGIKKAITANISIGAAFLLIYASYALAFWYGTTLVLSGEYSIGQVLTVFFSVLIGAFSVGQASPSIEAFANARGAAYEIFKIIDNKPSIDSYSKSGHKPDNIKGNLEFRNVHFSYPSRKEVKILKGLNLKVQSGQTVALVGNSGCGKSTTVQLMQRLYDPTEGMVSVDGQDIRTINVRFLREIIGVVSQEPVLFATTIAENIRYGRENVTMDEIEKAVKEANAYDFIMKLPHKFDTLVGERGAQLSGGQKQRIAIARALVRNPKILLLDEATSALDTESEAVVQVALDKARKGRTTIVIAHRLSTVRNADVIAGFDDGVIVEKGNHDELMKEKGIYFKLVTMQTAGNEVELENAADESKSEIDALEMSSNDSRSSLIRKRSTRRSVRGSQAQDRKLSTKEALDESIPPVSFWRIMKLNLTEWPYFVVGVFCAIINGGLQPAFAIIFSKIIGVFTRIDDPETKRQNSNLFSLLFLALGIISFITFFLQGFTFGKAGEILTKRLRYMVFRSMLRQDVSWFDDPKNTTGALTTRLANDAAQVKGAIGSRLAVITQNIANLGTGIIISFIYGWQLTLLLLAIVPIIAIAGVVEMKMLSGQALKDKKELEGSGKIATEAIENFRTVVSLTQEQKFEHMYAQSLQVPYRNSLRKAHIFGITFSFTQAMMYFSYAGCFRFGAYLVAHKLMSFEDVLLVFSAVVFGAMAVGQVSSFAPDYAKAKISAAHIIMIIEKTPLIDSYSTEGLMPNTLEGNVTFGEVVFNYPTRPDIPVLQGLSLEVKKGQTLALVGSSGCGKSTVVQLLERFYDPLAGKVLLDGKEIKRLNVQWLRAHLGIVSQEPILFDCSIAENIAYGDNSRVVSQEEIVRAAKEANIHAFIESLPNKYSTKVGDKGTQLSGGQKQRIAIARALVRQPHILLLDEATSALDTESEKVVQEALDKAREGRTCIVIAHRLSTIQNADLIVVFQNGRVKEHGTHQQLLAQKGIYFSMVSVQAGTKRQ

Row | SMILES | IC50 [1] [µM] | Papp at 2 h, 1 μM [2] [nm/s] | efflux ratio at 2 h, 1 μM (P-gp (MDR1)) | efflux ratio at 2 h, 1 μM (BCRP (hBCRP))
1 | Cn1c(Nc2ccc(Br)cc2Cl)c2c(cc1=O)CCN(OCCO)C2=O [Example 10, 8-((4-bromo-2-chlorophenyl)amino)-2-(2-hydroxyethoxy)-7-methyl-3,4-dihydro-2,7-naphthyridine-1,6(2H,7H)-dione] | 0.058 | 265 | 6.7 | 6.3
2 | Cn1c(Nc2ccc(C3CC3)cc2F)c2c(cc1=O)CCN(OCCO)C2=O [Example 15, 8-((4-cyclopropyl-2-fluorophenyl)amino)-2-(2-hydroxyethoxy)-7-methyl-3,4-dihydro-2,7-naphthyridine-1,6(2H,7H)-dione] | 0.017 | 275 | 3.7 | 2.2
3 | Cn1c(Nc2ccc(C3CC3)cc2Cl)c2c(cc1=O)CCN(OCCO)C2=O [Example 19, 8-((2-chloro-4-cyclopropylphenyl)amino)-2-(2-hydroxyethoxy)-7-methyl-3,4-dihydro-2,7-naphthyridine-1,6(2H,7H)-dione] | 0.029 | 259 | 3.3 | 1.5
4 | CSc1ccc(Nc2c3c(cc(=O)n2C)CCN(OCCO)C3=O)c(Cl)c1 [Example 21, 8-((2-chloro-4-(methylthio)phenyl)amino)-2-(2-hydroxyethoxy)-7-methyl-3,4-dihydro-2,7-naphthyridine-1,6(2H,7H)-dione] | 0.01 | 288 | 4.2 | 3
5 | CCc1ccc(Nc2c3c(cc(=O)n2C)CCN(OCCO)C3=O)c(Cl)c1 [Example 23, 8-((2-chloro-4-ethylphenyl)amino)-2-(2-hydroxyethoxy)-7-methyl-3,4-dihydro-2,7-naphthyridine-1,6(2H,7H)-dione] | 0.026 | 304 | 3.2 | 2
6 | Cn1c(Nc2ccc(SC(F)F)cc2F)c2c(cc1=O)CCN(OCCO)C2=O [Example 25, 8-((4-((difluoromethyl)thio)-2-fluorophenyl)amino)-2-(2-hydroxyethoxy)-7-methyl-3,4-dihydro-2,7-naphthyridine-1,6(2H,7H)-dione] | 0.003 | 264 | 5.7 | 14.1
7 | CC(C)ON1CCc2cc(=O)n(C)c(Nc3ccc(I)cc3F)c2C1=O [Example 27, 8-((2-fluoro-4-iodophenyl)amino)-2-isopropoxy-7-methyl-3,4-dihydro-2,7-naphthyridine-1,6(2H,7H)-dione] | 0.142 | 251 | 0.9 | 1.4
8 | CCON1CCc2cc(=O)n(C)c(Nc3ccc(I)cc3F)c2C1=O [Example 28, 2-ethoxy-8-((2-fluoro-4-iodophenyl)amino)-7-methyl-3,4-dihydro-2,7-naphthyrdine-1,6(2H,7H)-dione] | 0.026 | 261 | 1.1 | 1.1
9 | CON1CCc2cc(=O)n(C)c(Nc3ccc(I)cc3F)c2C1=O [Example 29, 8-((2-fluoro-4-iodophenyl)amino)-2-methoxy-7-methyl-3,4-dihydro-2,7-naphthyridine-1,6(2H,7H)-dione] | 0.017 | 328 | 1.5 | 1.1
10 | C[C@H](O)CON1CCc2cc(=O)n(C)c(Nc3ccc(I)cc3F)c2C1=O [Example 31, (S)-8-((2-fluoro-4-iodophenyl)amino)-2-(2-hydroxypropoxy)-7-methyl-3,4-dihydro-2,7-naphthyridine-1,6(2H,7H)-dione] | 0.001 | 248 | 5.3 | 4.4
11 | C[C@@H](O)CON1CCc2cc(=O)n(C)c(Nc3ccc(I)cc3F)c2C1=O [Example 32, (R)-8-((2-fluoro-4-iodophenyl)amino)-2-(2-hydroxypropoxy)-7-methyl-3,4-dihydro-2,7-naphthyridine-1,6(2H,7H)-dione] | 0.01 | 248 | 6.5 | 5.2
12 | C[C@H](O)CON1CCc2cc(=O)n(C)c(Nc3ccc(Br)cc3F)c2C1=O [Example 33, (S)-8-((4-bromo-2-fluorophenyl)amino)-2-(2-hydroxypropoxy)-7-methyl-3,4-dihydro-2,7-naphthyridine-1,6(2H,7H)-dione] | 0.019 | 247 | 4 | 8.3
13 | Cn1c(Nc2ccc(Br)cc2F)c2c(c(Cl)c1=O)CCN(OCCO)C2=O [Example 37, 8-((4-bromo-2-fluorophenyl)amino)-5-chloro-2-(2-hydroxyethoxy)-7-methyl-3,4-dihydro-2,7-naphthyridine-1,6(2H,7H)-dione] | 0.116 | 286 | 2.7 | 3.3
